One block for each compound: values may come before it.
Experiments:
[1] = target: Ba/F3 EGFR-D770_N771insSVD (Homo sapiens, UniProt P00533, DUP768-770, cells depend on it); assay: Anti-proliferation against Ba/F3 exon 20 insertion mutant cells (SVD); type: cell-based, mouse; conditions: CTG, 72 hours, read-out: Mutant cells IC50 (anti-proliferation)
Text: RPMI1640 medium was purchased from Hyclone, FBS fetal bovine serum was purchased from GBICO, and trypsin-EDTA were both purchased from Giboco. DPBS was purchased from Corning, penicillin/streptomycin solution was purchased from Hyclone, and Cell-Titer Glo reagent was purchased from Promega (Cat. No. G7572). Ba/F3 EGFR-D770_N771insSVD, Ba/F3 EGFR-H773_V774insNPH, Ba/F3 EGFR-V769_D770insASV, BaF3 ERBB2 A775_G776 ins YVMA, the cell lines were constructed by Beijing Kang Yuan Bochuang Biotechnology Co., Ltd. Plate reading instrument: Envision (PerkinElmer).
Cells in logarithmic growth phase were harvested and cell counts were performed using a […]. Cell viability was detected by the Taipan Blue rejection assay. The cell concentration was adjusted; the cell suspension was added to a 96-well plate separately. Cells in 96-well plates were incubated overnight at 37° C., 5% CO2, and 95% humidity. To prepare the drug solution, 10 μL of drug solution was added to each well of the 96-well plate inoculated with cells, and three replicate wells were set up for each drug concentration. The cells in the 96-well plates added with drugs were placed at 37° C., 5% CO2, 95% humidity and continued to incubate for 72 hours, after which CTG analysis was performed and the cells were vibrated on an orbital shaker to lyse the cells. The cell plate was placed at room temperature to stabilize the cold light signal, and the cold light values were read. The data were analyzed using GraphPad Prism 7.0 software, and a nonlinear S-curve regression was used to fit the data to derive the dose-effect curve from which the IC50 values were calculated.
The IC50 of anti-proliferation activity against Ba/F3 Exon20 insertion mutant cells of the compounds of the present disclosure is shown in Table 5.
Ba/F3 exon 20 insertion mutant cells are cell lines with SVD, NPH, ASV, and YVMA insertion mutations artificially constructed using mouse B cells, and it can be seen from Table 5 that the compounds of the present disclosure have better cellular anti-proliferation activity against the […] exon 20 insertion mutations such as SVD, NPH, ASV, and YVMA, and also show better anti-proliferation activity against common exon 20 insertion mutations such as SVD mutation.

[2] = tested on: non-small cell lung cancer with EGFR and HER2 exon 20 insertion mutation; conditions: clinical reports, NSCLC with EGFR and HER2 exon 20 insertion mutation; cited from earlier work

Ba/F3 EGFR-D770_N771insSVD, sequence (P00533 with tags, fused parts or gaps DUP768-770): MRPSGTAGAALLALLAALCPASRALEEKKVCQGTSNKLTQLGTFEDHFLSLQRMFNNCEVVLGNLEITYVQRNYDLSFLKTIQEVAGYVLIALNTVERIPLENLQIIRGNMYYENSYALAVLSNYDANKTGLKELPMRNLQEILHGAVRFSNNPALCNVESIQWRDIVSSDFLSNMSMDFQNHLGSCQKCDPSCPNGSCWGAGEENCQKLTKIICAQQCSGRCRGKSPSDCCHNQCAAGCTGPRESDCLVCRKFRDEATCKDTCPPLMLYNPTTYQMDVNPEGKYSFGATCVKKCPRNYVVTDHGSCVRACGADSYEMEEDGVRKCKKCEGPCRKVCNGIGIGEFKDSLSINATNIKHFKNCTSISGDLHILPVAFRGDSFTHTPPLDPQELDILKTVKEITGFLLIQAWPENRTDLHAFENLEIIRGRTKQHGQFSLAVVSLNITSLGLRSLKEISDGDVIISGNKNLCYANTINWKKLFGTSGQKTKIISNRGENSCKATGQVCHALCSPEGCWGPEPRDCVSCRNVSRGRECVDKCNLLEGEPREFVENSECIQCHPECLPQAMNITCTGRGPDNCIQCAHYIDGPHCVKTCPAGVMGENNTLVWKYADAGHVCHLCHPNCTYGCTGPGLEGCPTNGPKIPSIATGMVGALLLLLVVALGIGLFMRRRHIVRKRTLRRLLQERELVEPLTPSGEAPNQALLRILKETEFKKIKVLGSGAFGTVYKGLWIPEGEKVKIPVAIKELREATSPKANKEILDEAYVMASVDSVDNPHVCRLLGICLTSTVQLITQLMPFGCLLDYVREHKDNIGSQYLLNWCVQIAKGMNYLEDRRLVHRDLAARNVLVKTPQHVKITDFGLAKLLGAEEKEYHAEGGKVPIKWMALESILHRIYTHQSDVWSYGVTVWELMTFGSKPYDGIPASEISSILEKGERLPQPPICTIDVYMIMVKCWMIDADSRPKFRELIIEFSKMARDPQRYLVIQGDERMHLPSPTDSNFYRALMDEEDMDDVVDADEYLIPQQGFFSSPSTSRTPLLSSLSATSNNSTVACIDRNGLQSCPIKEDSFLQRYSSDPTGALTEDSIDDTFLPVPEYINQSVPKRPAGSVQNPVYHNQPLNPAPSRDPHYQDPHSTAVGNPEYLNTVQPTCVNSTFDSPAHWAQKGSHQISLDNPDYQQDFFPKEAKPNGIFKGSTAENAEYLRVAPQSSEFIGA

Structure (SMILES): C=CC(=O)Nc1cc(Nc2ncc(C(=O)OC(C)C)c(-c3cn(C)c4ccccc34)n2)c(OC)cc1N(C)CCN(C)C [TAK788]
disease control rate [2]: 86%
objective response rate [2]: 43%

Structure (SMILES): C=CC(=O)Nc1cc(Nc2ncc(C(=O)OC(C)C)c(-c3cn(OC(C)C)c4ccccc34)n2)c(OC)cc1N(C)CCN(C)C [Compound 3]
GI50 [1]: 54 nM

Structure (SMILES): C=CC(=O)Nc1cc(Nc2ncc(C(=O)OC(C)C)c(-c3cn(OC)c4c(C5CC5)cccc34)n2)c(OC)cc1N(C)CCN(C)C [Compound 5]
GI50 [1]: 58 nM

Continued, values first:

GI50 [1]: 33 nM
Structure (SMILES): C=CC(=O)Nc1cc(Nc2ncc(C(=O)OC(C)C)c(-c3cn(OC)c4c(Cl)cccc34)n2)c(OC)cc1N(C)CCN(C)C [Compound 4]

GI50 [1]: 27 nM
Structure (SMILES): C=CC(=O)Nc1cc(Nc2ncc(C(=O)OC(C)C)c(-c3cn(OCC)c4ccccc34)n2)c(OC)cc1N(C)CCN(C)C [Compound 2]
